Data published in patent US6384045B1, “Tricyclic and tetracyclic pyrones” (Kansas State University Research Foundation, priority 1997, dated 2002).
“Also recorded” adds a separate entry of the source.

Assays:
[1] = molecular target: acetylcholinesterase (AChE) (UniProt O42275); format: biochemical, electric eel; fetal bovine serum; settings: read-out: AChE inhibition constant Ki ± std. error; 30° C., pH 8.0
Method: Acetylcholinesterase Assay and Inhibition Kinetics: Tricyclic pyrones of this invention were tested for inhibition of AChE. […] Reactions were carried out at 30° C. in 0.1 M sodium phosphate buffer at pH 8.0 in the presence of […] and 3.3×10^−4 M 3-carboxy-4-nitrophenyl disulfide. Aliquots of incubating mixtures containing enzyme alone, or enzyme in the presence of each carbamate, were withdrawn at selected time intervals and assayed for enzyme activity in order to obtain kinetic data. From the kinetic data, inhibition and bimolecular rate constants were calculated by the equation: [formula]
in which kapp is the pseudo-first-order rate constant.

[2] = tested on: T1, liver and intestinal microsomal ACAT; assay: Inhibition of liver and intestinal microsomal ACAT activity; format: biochemical
T1 construct: other: 100 μM; other: 44 nM; other: 50 μM
Method: . Microsomes were prepared from liver and intestinal mucosal scrapings by sequential centrifugation and in vitro ACAT activity assays were done according to the method of Billheimer (Billheimer, J. T. (1985), “Cholesterol acyltransferase,” In Methods in Enzymology 111:286-293). Briefly, 100 μg microsomal protein, 22 μg BSA, and 52 nmol cholesterol and the synthesized drug in 5 μL DMSO were preincubated for 30 minutes at 37° C. in a phosphate buffer (200 μL total volume). After 30 minutes, 1 nmol [^14C]oleoyl-CoA was added as substrate and incubated for an additional 20 minutes. The reaction was stopped with the addition of 1 mL ethanol and lipids were extracted with hexane. Cholesteryl [^14C]oleate formation was quantified by thin-layer chromatography and data are expressed as percent inhibition of ACAT activity (pmol/μg protein per minute) compared to a control sample incubated with no drug. All samples were run in duplicate. […]

[3] = tested on: L1210 lymphoblastic leukemia cells; assay: Inhibition of DNA synthesis (3H-thymidine incorporation) in L1210 cells in vitro; format: cell-based, Murine; settings: for inhibition of DNA synthesis in L1210 cells: 90 min + 30 min pulse
Method: FIG. 1 illustrates a comparison of the effects of four new tricyclic pyrone derivatives and CPT on DNA synthesis in L1210 cells in vitro. About 2.53×10^6 cells suspended in 0.5 ml of RPMI 1640 medium were incubated at 37° C. for 90 minutes in the presence or absence (control) of the indicated concentrations of drugs. The cells were then pulse-labeled for an additional 30 minutes to determine the rate of ^3H-thymidine incorporation into DNA. DNA synthesis in vehicle-treated control cells was 43,956±4,569 cpm (100±11%). The blank value (1,241±99 cpm) for cells pulse-labeled for 0 minutes with 1 μCi of ^3H-thymidine has been subtracted from the results. Bars: means±SD (n=3).
(§1) All solutions of tricyclic pyrone analogs were dissolved and diluted in 100% ethanol (ETOH), whereas CPT (Sigma Chemical Co., St. Louis, Mo.) solutions were prepared in 100% dimethyl sulfoxide (DMSO). Murine L1210 lymphoblastic leukemia cells, obtained from the American Type Culture Collection (Rockville, Md.), were maintained in continuous exponential growth by twice-a-week passage in RPMI 1640 medium supplemented with 7.5% fortified bovine calf serum (HyClone Laboratories, Inc., Logan, Utah). The cultures were incubated at 37° C. in a humidified atmosphere containing 5% CO2. All drugs were supplemented to the culture medium in 1- or 2 μl aliquots. The concentration of vehicle in the final incubation volume never exceeded 0.2-0.4%. […] Control cells incubated in the absence of drugs were similarly treated with vehicle only and, in every experiment, all incubates received the same volume of solvent.
For DNA synthesis, L1210 cells were resuspended in fresh serum-free RPMI 1640 medium at a density of about 2.5×10^6 cells/0.5 ml. The cells were incubated at 37° C. for 90 min in the presence or absence of drugs and then pulse-labeled for an additional 30 min with 1 μCi of [methyl-^3H]thymidine (51 Ci/mmol; Amersham Corp., Arlington Heights, Ill.). The incubations were terminated by the addition of 0.5 ml of 10% trichloroacetic acid (TCA). After holding on ice for 15 min, the acid-insoluble material was recovered over Whatman GF/A glass microfibre filters and washed thrice with 2 ml of 5% TCA and twice with 2 ml of 100% EtOH. After drying the filters, the radioactivity bound to the acid-precipitable material was determined by liquid scintillation counting in 10 ml of Bio-Safe NA (Research Products International Corp., Mount Prospect, Ill.).

[4] = tested on: L1210 lymphoblastic leukemia cells; assay: Inhibition of L1210 tumor cell growth in vitro (Coulter counter); format: cell-based, Murine; settings: for reduction of L1210 cell numbers vs control: 0.78 μM; for inhibition of L1210 cell growth (% reduction of control cell numbers): 50 μM, 3 and 4 days in culture
Method: Cells were plated at an initial density of 1×10^4 cells/0.5 ml/well in RPMI 1640 medium, containing 7.5% fortified bovine calf serum, and grown at 37° C. for 4 days in a humidified incubator in 5% CO2 in air. Cells were incubated in the presence or absence (^•, control) of 50 μM 3A (▪), 2D & 2E (□),3D & 3E (▴), 2B & 2C (Δ) 2A (♦), 3B & 3C (⋄), or 10 μM CPT (∘) and their density was monitored in triplicate every 24 h using a Coulter counter. Cells numbers are plotted on a logarithmic scale.
as §1
For tumor cell growth, L1210 cells were resuspended in fresh serum-containing RPMI 1640 medium, plated at an initial density of 1×10^4 cells/0.5 ml, and incubated in 48-well Costar cell culture plates (Costar, Cambridge, Mass.). Cells were grown for 4 days in the presence or absence of drugs and their density was monitored every 24 h using a Coulter counter (Coulter Electronics, Ltd., Luton Beds, England). Data of all in vitro experiments were analyzed using Student's t-test with the level of significance set at P<0.05.

Chain of acetylcholinesterase (AChE) (O42275 whole entry): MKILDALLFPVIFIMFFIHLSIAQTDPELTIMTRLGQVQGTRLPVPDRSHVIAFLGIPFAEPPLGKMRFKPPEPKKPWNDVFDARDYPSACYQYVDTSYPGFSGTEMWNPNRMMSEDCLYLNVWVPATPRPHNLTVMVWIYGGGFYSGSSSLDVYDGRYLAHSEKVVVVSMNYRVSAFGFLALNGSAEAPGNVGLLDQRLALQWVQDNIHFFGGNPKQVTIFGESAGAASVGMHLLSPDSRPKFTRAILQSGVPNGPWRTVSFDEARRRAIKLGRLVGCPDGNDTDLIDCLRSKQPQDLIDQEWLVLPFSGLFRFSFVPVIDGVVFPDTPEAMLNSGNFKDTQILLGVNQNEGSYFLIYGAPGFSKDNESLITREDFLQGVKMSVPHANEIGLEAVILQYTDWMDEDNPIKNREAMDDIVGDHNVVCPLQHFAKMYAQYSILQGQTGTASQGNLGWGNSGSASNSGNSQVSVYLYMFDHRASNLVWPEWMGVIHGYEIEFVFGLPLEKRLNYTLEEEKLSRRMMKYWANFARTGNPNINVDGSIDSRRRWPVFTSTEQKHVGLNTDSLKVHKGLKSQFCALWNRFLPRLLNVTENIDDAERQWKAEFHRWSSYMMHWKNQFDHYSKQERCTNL

Molecule	Ki [1] [µM]	% Inhibition of ACAT ([2]; 50 μM) [%]	% Inhibition of ACAT ([2]; 100 μM) [%]	also measured
Cc1cc2c(c(=O)o1)C=C1CCC[C@H](O)[C@@]1(C)O2 [Compound 1B, cis-3-5a-dimethyl-6-hydroxy-1H-5a,6,7,8,9-pentahydro-1-oxopyrano[4,3-b][1]benzopyran]	20 ± 5.8			
Cc1cc2ncc3c(c2c(=O)o1)CCCC3 [Compound 26, 1H-3-methyl-7,8,9,10-tetrahydropyrano[4,3-c]isoquinolin-1-one]		2.7	13.7	
C=C(C)[C@H]1CCC2=Cc3c(cc(C)oc3=O)O[C@H]2C1 [Compound 28, (5aS,7S)-7-Isopropenyl-3-methyl-1H-5a,6,7,8,9-pentahydro-1-oxopyrano[4,3-b][1]benzopyran]		17	30	
O=C(CCCCC(=O)Cc1cc2c(c(=O)o1)C=C1CCCCC1O2)Cc1cc2c(c(=O)o1)C=C1CCCCC1O2 (stereo not shown) [Compound 33, 1,8-Di-{3-[1H-5a,6,7,8,9-pentahydro-1-oxopyrano[4,3-b][I]benzopyranyl]}-2,7-octanedione]		57	76	
CC12Oc3cc(-c4cccnc4)oc(=O)c3C=C1CCCC2OC=O (stereo not drawn) [Compound 2D, cis-3-(3-pyridyl)-5a-methyl-6-formyloxy-1H-5a,6,7,8,9-pentahydro-1-oxopyrano[4,3-b][1]benzopyran]	26 ± 2.3			
CC[C@@]1(O)C(=O)OCc2c1cc1n(c2=O)Cc2cc3ccccc3nc2-1 [CPT, 20(S)-camptothecin (CPT), reference compound]				IC50 ([3]; Mus musculus, L1210, 2 h, read-out: concentration that inhibits DNA synthesis by 50% (IC50)): ~0.65 µM; reduction of L1210 cell numbers vs control ([4]; 1 day): 46%; reduction of L1210 cell numbers vs control ([4]; 2 days): 85%; reduction of L1210 cell numbers vs control ([4]; 3 days): 97%; reduction of L1210 cell numbers vs control ([4]; 4 days): 99%
O=C(O)Cc1cc2c(c(=O)o1)C=C1CCCCC1O2 (stereo not shown) [Compound 32, 3-(Carboxymethyl)-1H-5a,6,7,8,9-pentahydro-1-oxopyrano[4,3-b][1]benzopyran]		10.3	7.9	
C=C(C)[C@H]1CCC2=Cc3c(cc(-c4ccc(OC)c(OC)c4)oc3=O)OC2C1 (stereo partly drawn) [Compound 30, (5aS,7S)-7-Isopropenyl-3-(3,4-dimethoxyphenyl)-1H-5a,6,7,8,9-pentahydro-1-oxopyrano[4,3-b][1]benzopyran]		13.3	21.9	
CC12Oc3cc(-c4cccnc4)oc(=O)c3C=C1CCCC2OC=O (stereo not drawn) [2D & 2E, cis- and trans-3-(3-pyridyl)-5a-methyl-6-formyloxy-1H-5a,6,7,8,9-pentahydro-1-oxopyrano[4,3-b]benzopyran]				inhibition of DNA synthesis in L1210 cells ([3]; 25 μM): no significant effects; inhibition of DNA synthesis in L1210 cells ([3]; 50 μM, 50 µM): 49%; inhibition of L1210 cell growth (% reduction of control cell numbers) [4]: cannot inhibit the growth
O=c1oc(-c2cccnc2)cc2c1[C@@H](O)[C@@]1(O)CCCC[C@@H]1O2 (relative stereo) [Compound 38B, (5aS*,9aR*,10R*)-9a,10-Dihydroxy-3-(3-pyridyl)-1H-5a,6,7,8,9,9a,10-heptahydro-1-oxopyrano[4,3-b][1]benzopyran]		9.7	11.4	
CC12Oc3cc(-c4cccnc4)oc(=O)c3C=C1CCCC2O (stereo not drawn) [Compound 2B, cis-3-(3-pyridyl)-5a-methyl-6-hydroxy-1H-5a,6,7,8,9-pentahydro-1-oxopyrano[4,3-b][1]benzopyran]	8 ± 2.3			
CCCCCCCC[C@H](SCCCCCC)C(=O)Nc1c(SC)cc(C)nc1SC [CP-113,818, reference compound]				% Inhibition of ACAT ([2]; 44 nM): 42.5%
CC12Oc3cc(-c4cccnc4)oc(=O)c3C=C1CCCC2O (stereo not drawn) [2B & 2C, cis- and trans-3-(3-pyridyl)-5a-methyl-6-hydroxy-1H-5a,6,7,8,9-pentahydro-1-oxopyrano[4,3-b]benzopyran]				inhibition of L1210 cell growth (% reduction of control cell numbers) [4]: cannot inhibit the growth
tri(deacetyl)pyripyropene A [Compound 22]				inhibition of DNA synthesis in L1210 cells ([3]; 25 μM): no significant effects; inhibition of DNA synthesis in L1210 cells ([3]; 50 μM, 50 µM): no effect; also recorded: ineffective; also recorded: fail to inhibit DNA synthesis
COc1ccc(-c2cc3c(c(=O)o2)C=C2CCCC(O)C2(C)O3)cc1OC (stereo not drawn) [Compound 3B, cis-3-(3,4-dimethoxyphenyl)-5a-methyl-6-hydroxy-1H-5a,6,7,8,9-pentahydro-1-oxopyrano[4,3-b][1]benzopyran]	4 ± 0.6			
CCCCC(=O)OCC(C)[C@H]1CCC2C(O)c3c(cc(-c4ccc(OC)c(OC)c4)oc3=O)O[C@H]2C1 (stereo partly drawn) [Compound 37, (5aS,7S)-7-[2-(1-Pentanoyloxypropyl)]-10-hydroxy-3-(3,4-dimethoxyphenyl)-1H-5a,6,7,8,9,9a,10-heptahydro-1-oxopyrano[4,3-b][1]benzopyran]		36.8	52.4	
O=c1occc2nc3c(cc12)CCCC3 [Compound 24, 1H-6,7,8,9-tetrahydro-1-oxopyrano[4,3-b]quinoline]		1.9	3.3	
COc1ccc(-c2cc3c(c(=O)o2)C=C2CCCC(OC=O)C2(C)O3)cc1OC (stereo not drawn) [Compound 3D, cis-3-(3,4-Dimethoxyphenyl)-6-formyloxy-5a-methyl-1H-5a,6,7,8,9-pentahydro-1-oxopyrano[4,3-B][1]benzopyran]	15 ± 5.8			
Cc1cc2c(c(=O)o1)C=C1CCCC(OC=O)C1(C)O2 (stereo not drawn) [Compound 1D, cis-3-5-a-dimethyl-6-formyloxy-1H-5a,6,7,8,9-pentahydro-1-oxopyrano[4,3-b][1]benzopyran]	5 ± 1.7			IC50 ([2]; using literature IC50 of pyripyropene as standard): 52 µM
C=C(C)[C@H]1CCC2=Cc3c(cc(-c4cccnc4)oc3=O)O[C@H]2C1 [Compound 29, (5aS,7S)-7-Isopropenyl-3-(3-pyridyl)-1H-5a,6,7,8,9-pentahydro-1-oxopyrano[4,3-b][1]benzopyran]		21	39	
